According to patent US11021424B2, “Redox-active therapeutics for treatment of mitochondrial diseases and other conditions and modulation of energy biomarkers” (PTC THERAPEUTICS, INC., priority 2005, dated 2021):
Read-outs that look alike come from different tables or passages of the source.

System: FRDA fibroblasts
Assay: Rescue of FRDA fibroblasts stressed by L-buthionine-(S,R)-sulfoximine (BSO), viability by Calcein AM fluorescence
Type: cell-based, human
Settings: for EC50: BSO-stressed (1 mM) FRDA fibroblasts GM04078
Experimental: An initial screen was performed to identify compounds effective for the amelioration of redox disorders. Test samples, 4 reference compounds (idebenone, decylubiquinone, Trolox and α-tocopherol acetate), and solvent controls were tested for their ability to rescue FRDA fibroblasts stressed by addition of L-buthionine-(S,R)-sulfoximine (BSO), as described in Jauslin et al., Hum. Mol. Genet. 11(24):3055 (2002), Jauslin et al., FASEB J. 17:1972-4 (2003), and International Patent Application WO 2004/003565. […] This specific BSO-mediated cell death can be prevented by administration of antioxidants or molecules involved in the antioxidant pathway, such as α-tocopherol, short chain quinones, selenium, or small molecule glutathione peroxidase mimetics. However, antioxidants differ in their potency, i.e. the concentration at which they are able to rescue BSO-stressed FRDA fibroblasts. With this assay EC50 concentrations of the test compounds were determined and compared to known reference antioxidants.
MEM (a medium enriched in amino acids and vitamins, catalog no. 1-31F24-I) and Medium 199 (M199, catalog no. 1-21F224) with Earle's Balanced Salts, without phenol red, were purchased from Bioconcept. Fetal Calf Serum was obtained from PAA Laboratories. Basic fibroblast growth factor and epidermal growth factor were purchased from PeproTech. Penicillin-streptomycin-glutamine mix, L-buthionine (S,R)-sulfoximine, (+)-α-tocopherol acetate, decylubiquinone, and insulin from bovine pancreas were purchased from Sigma. Trolox (6-hydroxy-2,5,7,8-tetramethylchromane-2-carboxylic acid) was obtained from Fluka. Idebenone was obtained from Chemo Iberica. Calcein AM was purchased from Molecular Probes. Cell culture medium was made by combining 125 ml M199 EBS, 50 ml Fetal Calf Serum, 100 U/ml penicillin, 100 μg/ml streptomycin, 2 mM glutamine, 10 μg/ml insulin, 10 ng/ml EGF, and 10 ng/ml bFGF; MEM EBS was added to make the volume up to 500 ml. A 10 mM BSO solution was prepared by dissolving 444 mg BSO in 200 ml of medium with subsequent filter-sterilization. During the course of the experiments, this solution was stored at +4° C. The cells were obtained from the Coriell Cell Repositories (Camden, N.J.; repository number GM04078) and grown in 10 cm tissue culture plates. Every third day, they were split at a 1:3 ratio.
The test samples were supplied in 1.5 ml glass vials. The compounds were diluted with DMSO, ethanol or PBS to result in a 5 mM stock solution. Once dissolved, they were stored at −20° C. Reference antioxidants (idebenone, decylubiquinone, α-tocopherol acetate and trolox) were dissolved in DMSO.
Test samples were screened according to the following protocol: A culture with FRDA fibroblasts was started from a 1 ml vial with approximately 500,000 cells stored in liquid nitrogen. Cells were propagated in 10 cm cell culture dishes by splitting every third day in a ratio of 1:3 until nine plates were available. Once confluent, fibroblasts were harvested. For 54 micro titer plates (96 well-MTP) a total of 14.3 million cells (passage eight) were re-suspended in 480 ml medium, corresponding to 100 μl medium with 3,000 cells/well. The remaining cells were distributed in 10 cm cell culture plates (500,000 cells/plate) for propagation. The plates were incubated overnight at 37° C. in a atmosphere with 95% humidity and 5% CO2 to allow attachment of the cells to the culture plate.
MTP medium (243 μl) was added to a well of the microtiter plate. The test compounds were unfrozen, and 7.5 μl of a 5 mM stock solution was dissolved in the well containing 243 μl medium, resulting in a 150 μM master solution. Serial dilutions from the master solution were made. The period between the single dilution steps was kept as short as possible (generally less than 1 second).
Plates were kept overnight in the cell culture incubator. The next day, 10 μl of a 10 mM BSO solution were added to the wells, resulting in a 1 mM final BSO concentration. […]

Structure (SMILES)	EC50 (average of three experiments, read-out: EC50 Average)	EC50 (first of three experiments, read-out: EC50 Value 1)	EC50 (second of three experiments, read-out: EC50 Value 2)	EC50 (third of three experiments, read-out: EC50 Value 3)	EC50 (Homo sapiens, average of three experiments, read-out: EC50 Average)	EC50 (Homo sapiens, first of three experiments, read-out: EC50 Value 1)	EC50 (Homo sapiens, second of three experiments, read-out: EC50 Value 2)	EC50 fold lower than alpha-D-tocopherol (human cell culture model of FRDA, relative to alpha-D-tocopherol)	EC50 fold lower than idebenone (human cell culture models of FRDA, relative to idebenone)
CC(=O)Oc1c(C)c(C)c2c(c1C)CC[C@@](C)(CCC[C@H](C)CCC[C@H](C)CCCC(C)C)O2 [α-tocopherol acetate, (+)-α-tocopherol acetate, reference compound]	300 nM	400 nM	150 nM	350 nM					
CC1=C(C)C(=O)C(CC[C@](C)(O)CCC[C@H](C)CCC[C@H](C)CCCC(C)C)=C(C)C1=O [α-tocopherol quinone, 2-[(3R,7R,11R)-3-hydroxy-3,7,11,15-tetramethylhexadecyl]-3,5,6-trimethyl-2,5-cyclohexadiene-1,4-dione]					0.0014 nM	0.001 nM	0.003 nM	10^4 fold	10^5 fold
